pEC50, pIC50: −log10 of the molar value.
How the values were obtained:
[1] = molecular target: Serine/threonine-protein kinase mTOR (Homo sapiens, UniProt P42345)
[2] = tested on: Middle East respiratory syndrome-related coronavirus; test: microbe, parasite or virus in culture; format: functional
in vitro [3] = settings: human, HeLa cells
in vitro [4] = settings: human
[5] = Cytotoxicity against human HaCaT cells; format: toxicity, cell-based
in vitro [6] = settings: human, jurkat 6c6-du cell
[7] = tested on: Human immunodeficiency virus; test: microbe, parasite or virus in culture; format: functional, organism-based; settings: Human immunodeficiency virus 1
[8] = tested on: Human immunodeficiency virus 1; test: Antiviral activity against HIV-1 assessed as reduction of viral growth at 50 uM; format: functional; set-up: scale not given: the % may be the effect or the level left
in vitro [9] = settings: chlorocebus sabaeus, Vero cells
Human alphaherpesvirus 1 [10] = test: Antiviral activity against HSV-1 infected in african green monkey Vero cells assessed as inhibition of cytopathic effect at 50 uM; format: functional; set-up: scale not given: the % may be the effect or the level left
Pichinde virus [11] = test: Antiviral activity against PICV infected in african green monkey Vero cells assessed as reduction in viral titre at 100 uM relative to control; format: functional; set-up: scale not given: the % may be the effect or the level left
Pichinde virus [12] = test: Antiviral activity against PICV assessed as reduction of viral growth at 50 uM; format: functional; set-up: scale not given: the % may be the effect or the level left
Human alphaherpesvirus 1 [13] = test: Antiviral activity against HSV-1 assessed as reduction of viral growth at 50 uM; format: functional; set-up: scale not given: the % may be the effect or the level left
Hepatitis B virus = test: microbe, parasite or virus in culture; format: functional, organism-based; settings: Hepatitis B virus
[14] = Cytotoxicity against HSG cells; format: toxicity, cell-based; settings: human
Cytomegalovirus = test: Antiviral activity against CMV; format: functional, organism-based; settings: Human betaherpesvirus 5
Influenza A virus [15] = test: Antiviral activity against influenza pH1N1 virus; format: functional, organism-based
Influenza A virus [16] = test: microbe, parasite or virus in culture; format: functional, organism-based; settings: H1N1
[17] = Cytotoxicity against human NCI-H1666 cells; format: toxicity, cell-based
[18] = Cytotoxicity against human LN-18 cells; format: toxicity, cell-based
in vitro [19] = settings: human, MDM cells
Human alphaherpesvirus 3 = test: microbe, parasite or virus in culture; format: functional, organism-based
[20] = tested on: Human immunodeficiency virus 1; test: microbe, parasite or virus in culture; format: functional, organism-based
[21] = molecular target: Cyclin-dependent kinase 4 (Homo sapiens, UniProt P11802)
Chain of Cyclin-dependent kinase 4 (P11802 whole entry): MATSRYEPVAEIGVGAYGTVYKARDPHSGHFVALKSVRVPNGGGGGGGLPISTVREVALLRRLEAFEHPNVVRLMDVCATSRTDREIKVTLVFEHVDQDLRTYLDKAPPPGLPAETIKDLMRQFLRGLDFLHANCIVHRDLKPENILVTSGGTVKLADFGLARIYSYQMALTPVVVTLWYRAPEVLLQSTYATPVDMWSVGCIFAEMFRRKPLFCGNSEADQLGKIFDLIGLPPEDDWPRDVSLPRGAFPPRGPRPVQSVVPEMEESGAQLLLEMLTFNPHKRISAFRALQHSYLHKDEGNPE

[22] = tested on: Human immunodeficiency virus 2; test: microbe, parasite or virus in culture; format: functional, organism-based
in vitro [23] = settings: human, PBMC
Human coronavirus 229E [24] = test: microbe, parasite or virus in culture
Human coronavirus 229E [25] = test: microbe, parasite or virus in culture; remark: listed apart in the source
[26] = tested on: Feline infectious peritonitis virus; test: microbe, parasite or virus in culture; settings: Alphacoronavirus 1
Dengue virus = test: microbe, parasite or virus in culture; settings: Huh-7
[27] = tested on: Middle East respiratory syndrome-related coronavirus; test: microbe, parasite or virus in culture
[28] = tested on: Middle East respiratory syndrome-related coronavirus; test: microbe, parasite or virus in culture; remark: listed apart in the source
dengue virus type 2 = test: microbe, parasite or virus in culture; format: functional, organism-based
in vitro [29] = settings: human, l132
Human coronavirus 229E [30] = test: Antiviral activity against HCoV-229E assessed as reduction of viral RNA level at 4 uM relative control; format: functional; set-up: scale not given: the % may be the effect or the level left
Influenza A virus [31] = test: Antiviral activity against influenza A RB1/H1N1pdm09 virus; format: functional, organism-based
[32] = Cytotoxicity against human A549 cells; format: toxicity, cell-based
[33] = Cytotoxicity against MDCK-II cells; format: toxicity, cell-based, Canis lupus familiaris; settings: dog
[34] = Cytotoxicity against human MCL cells; format: toxicity, cell-based

Structure (SMILES): CO[C@H]1C[C@@H]2CC[C@@H](C)[C@@](O)(O2)C(=O)C(=O)N2CCCC[C@H]2C(=O)O[C@H]([C@H](C)C[C@@H]2CC[C@@H](OCCO)[C@H](OC)C2)CC(=O)[C@H](C)/C=C(\C)[C@@H](O)[C@@H](OC)C(=O)[C@H](C)C[C@H](C)/C=C/C=C/C=C/1C [EVEROLIMUS]
- pIC50 [1]: 8.80
- inhibition at 10 µM [2]: 56%
- CC50 (in vitro [3]): 28.3 µM
- CC50 (in vitro [4]; Huh-7 cells): > 10 µM
- CC50 [5]: 28.3 µM

Structure (SMILES): O=C(Nc1nc2cccc(-c3ccc(CN4CCS(=O)(=O)CC4)cc3)n2n1)C1CC1 [FILGOTINIB]
- CC50 (in vitro [6]): > 10 µM
- pEC50 [7]: 5.51

Structure (SMILES): O=c1c(-c2ccc(O)cc2)coc2cc(O)cc(O)c12 [GENISTEIN]
- Activity [8]: >50%
- CC50 (in vitro [9]): > 50 µM
- Activity (Human alphaherpesvirus 1 [10]): 11%
- Activity (Pichinde virus [11]): 90%
- Activity (Pichinde virus [12]): >50%
- Activity (Human alphaherpesvirus 1 [13]): >50%
- pEC50 (Hepatitis B virus): 4.48

Structure (SMILES): Cc1oncc1C(=O)Nc1ccc(C(F)(F)F)cc1 [LEFLUNOMIDE]
- CC50 [14]: 20.8 µM
- pEC50 (Cytomegalovirus): 4.40

Structure (SMILES): NC1(c2ccc(-c3nc4ccn5c(=O)[nH]nc5c4cc3-c3ccccc3)cc2)CCC1 [MK-2206]
- pEC50 (Influenza A virus [15]): 6.10
- pIC50 (Influenza A virus [16]): 6.10
- CC50 [17]: 58.5 µM

Structure (SMILES): C1=C/COCc2cc(ccc2OCCN2CCCC2)Nc2nccc(n2)-c2cccc(c2)COC/1 [PACRITINIB]
- CC50 [18]: > 1 µM

Structure (SMILES): CC(C)[C@H](CO)Nc1nc(Nc2cccc(Cl)c2)c2ncn(C(C)C)c2n1 [PURVALANOLA]
- CC50 (in vitro [19]): 18.7 µM
- pEC50 (Human alphaherpesvirus 3): 6.00
- pEC50 [20]: 5.66
- pIC50 [21]: 8.40

Structure (SMILES): N#CC[C@H](C1CCCC1)n1cc(-c2ncnc3[nH]ccc23)cn1 [RUXOLITINIB]
- pEC50 [22]: 6.70
- pEC50 [20]: 6.52
- CC50 (in vitro [23]): > 100 µM

Structure (SMILES): CN1CCN(CCOc2cc(OC3CCOCC3)c3c(Nc4c(Cl)ccc5c4OCO5)ncnc3c2)CC1 [SARACATINIB]
- pEC50 (Human coronavirus 229E [24]): 5.62
- pEC50 (Human coronavirus 229E [25]): 5.62
- pEC50 [26]: 5.15
- pEC50 (Dengue virus): 4.91
- CC50 (in vitro [4]; huh-7): 74 µM
- pEC50 [27]: 5.54
- pEC50 [28]: 5.54
- pEC50 (dengue virus type 2): 4.91

Structure (SMILES): C[S+]([O-])c1ccc(-c2nc(-c3ccc(F)cc3)c(-c3ccncc3)[nH]2)cc1 (stereo unspecified) [SB-203580]
- CC50 (in vitro [29]): > 10 µM
- Activity (Human coronavirus 229E [30]): 60%

Structure (SMILES): CC(=O)Nc1cccc(-n2c(=O)n(C3CC3)c(=O)c3c(Nc4ccc(I)cc4F)n(C)c(=O)c(C)c32)c1 [TRAMETINIB]
- pEC50 (Influenza A virus [31]): 7.80
- CC50 [32]: > 20 µM
- CC50 [33]: > 20 µM

Structure (SMILES): C=CC(=O)N1CCC([C@@H]2CCNc3c(C(N)=O)c(-c4ccc(Oc5ccccc5)cc4)nn32)CC1 [ZANUBRUTINIB]
- CC50 [34]: > 1.4 µM

Source: ChEMBL document CHEMBL5131375, “Recent Developments in the Use of Kinase Inhibitors for Management of Viral Infections” (J Med Chem, 2022)
